Source: patent publication US9757375B2, “Compounds that inhibit human DNA ligases and methods of treating cancer” (University of Maryland, Baltimore, priority 2007, dated 2017)
Read-outs that look alike come from different tables or passages of the source.

Legend:
HCT116 and MCF10A cells = experiment: Cell proliferation screen, result stated for one or both cell lines; assay type: cell-based, human; details: in vivo cell culture screen
Method: (§1) The ability of the compounds identified by CADD to inhibit proliferation of normal mammary epithelial MCF10A cells and colon carcinoma HCT116 cells was determined using a Biomek FX Laboratory Automation Workstation (Beckman Coulter, Inc., Fullerton, Calif.). On day 0, 20 μl of complete medium containing the appropriate number of cells (150-300) was plated per well of a 384-well tissue plate (Fisher Scientific, Hampton, N.H.) and incubated overnight at 37° C. with 5% CO2 and 90% humidity. Next day, day 1, compounds were prepared by serial dilution with complete medium to yield the concentration 100 μM, and 20 μl was added to each well containing 20 μl of medium and cells yielding the final concentration 50 μM in 40 μl volume. Plates were incubated for additional 3 days (days-2-5) until control cells (0.5% DMSO) reached ˜70-80% confluency. On day 6, 40 μl of lysis/detection solution containing 1.2% Igepal CA-630 (Sigma) and a 1:1000 dilution of SYBR Green I nucleic acid stain (Molecular Probes, Eugene, Oreg.) was added to each well. Following an overnight incubation at 37° C., total fluorescence was measured using a Fluorostar Galaxy plate reader with a 485 nm excitation filter and 520 nm emission filter set (BMG Labtech, Inc., Durham, N.C.). Data was exported to a custom program that determined growth inhibition by dividing each individual fluorescence value by the average of fluorescence values obtained with cells treated with DMSO alone.
(§2) The 192 human DNA ligase inhibitors were screened in parallel for effects on proliferation and the ability to potentiate the effects of several DNA damaging agents using two cell human lines, a colon cancer line HCT116 and a normal breast epithelial cell line MCF10A using a Biomek FX Laboratory Automation Workstation as described (23). The DNA damaging agents used, methyl methanesulfonate (MMS), camptothecin, cis-platinum, 3 aminobenzamide and ionizing radiation, are representatives of classes of agents used to treat cancer. Briefly, HCT116 and MCF10A cells were plated in 96 well plates such that the cultures were about 80% confluent after 5 days incubation. Compounds were added to the cultures at either 15 μM or 50 μM 1 day after plating. After incubation for 3 days, cell lysed in a solution containing 1.2% Igepal CA-630 and SYBR green that stains DNA (1:1000, Molecular Probes, Eugene, Oreg.). Subsequently, fluorescence was measured per well. The studies with DNA damaging agents were performed as follows. […] For ionizing radiation, cells were pre-incubated with the compounds at 50 μM for 1 hour prior to exposure to 2 gray of ionizing radiation. Cultures were incubated for 3 days and then treated as above.

HCT116 cells [1] = experiment: Cell proliferation screen (SYBR Green, Biomek FX); assay type: cell-based, human; details: for inhibition at 50 µM: Homo sapiens, HCT-116, read-out: % growth inhibition HCT116 50 uM; for Growth_Inh % (50 μM) HCT116: percentage of values obtained with DMSO alone
Method: as §1, §2

MCF10A cells = experiment: Cell proliferation screen (SYBR Green, Biomek FX); assay type: cell-based, human; details: for inhibition at 50 µM: Homo sapiens, MCF-10A; for Growth_Inh % (50 μM) MCF10A: percentage of values obtained with DMSO alone
Method: as §1, §2

[2] = system: Human DNA ligases I, III and IV and T4 DNA ligase; experiment: Step 1 of the ligation reaction: ligase-AMP complex formation with [α32P] ATP; assay type: biochemical; details: for inhibition of the first step of the ligation reaction (ligase-AMP formation): 100 μM, FIG. 3A
Method: Human DNA ligases I, III and IV and T4 DNA ligase were incubated with [α^32P] ATP in the absence or presence of compounds 67, 82 and 189 (100 μM). After separation by SDS-PAGE, the labeled ligase-AMP complex was detected by phosphorimaging.

[3] = system: MCF7, HCT116, HeLa, and MCF10A cells; experiment: Survival assay on cell panel (FIG. 9); assay type: cell-based, human; details: for EC50 / cell survival: remark in words: cell line not stated; for potentiation of the cytotoxic effects of DNA-damaging agents: L67 3 μmol/L with MMS (MCF7 vs MCF10A), L189 20 μmol/L with ionizing radiation (HCT116 vs MCF10A), FIG. 9B; for cytotoxicity (cell survival): MCF7, HCT116, HeLa, MCF10A, FIG. 9A
Source text: FIG. 9. […] A, effect of L67 (left) and L189 (right) on the survival of MCF7 (Δ), HCT116 (□), HeLa (⋄), and MCF10A (upsidedown triangle) cells. B, normal breast epithelial MCF10A cells (open symbols) and breast cancer MCF7 cells (filled symbols) in the absence (circles) or presence of 3 μmol/L of L67 (squares) were exposed to increasing concentrations of MMS (left). Normal breast epithelial MCF10A cells (open symbols) and colon cancer HCT116 cells (filled symbols) in the absence (circles) or presence of 20 μmol/L of L189 (squares) were exposed to increasing doses of ionizing radiation (right). C, hLigI (I), hLigIIIα (III), and hLigIV (IV) were detected in extracts (400 μg) of the indicated cell lines by immunoblotting. To control for extract loading β-actin was also detected by immunoblotting.
For survival assays, cells were plated in 6 well plates and grown either in the absence or presence of ligase inhibitors. Where indicated, either MMS (0-50 μM) was added to the medium or the cells were irradiated in a Cs-137 irradiator (0-2.5 Gy). After two weeks, colonies were stained with crystal violet (Sigma) and then counted.

HCT116 cells [4] = experiment: MTT cell growth assay; assay type: cell-based, human; details: for IC50: Homo sapiens
How it was run: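 HCT116 cells (1200 per well) adhered overnight, then were exposed to serially diluted compounds for 5 days. MTT was added for 4 h, formazan dissolved in isopropanol and absorbance read at 560 nm as the growth measure.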

[5] = 50 μM, read-out: In vivo growth inhb MCF10A % Inhb at 50
[6] = read-out: % growth inhibition MCF10A 50 uM
[7] = HCT-116, cell growth, compound alone, read-out: IC50 (μM) HCT116
[8] = HCT-116, sections 'high concentrations (~50 μM)' and 'active in vitro that decreased cell growth', same figures given in μM elsewhere in Table 6, read-out: IC50 HCT116 (head without unit)

SMILES: C/C(O)=C1/C(=O)N(c2nc3ccccc3s2)N=C1c1ccccc1 [Compound 43]
- inhibition of cell proliferation, in words (HCT116 and MCF10A cells): inhibited cell proliferation
- In vitro growth inhb HCT116 % Inhb at 50 (μM) (HCT116 cells [1]): 70%
- inhibition at 50 µM (HCT116 cells [1]): 70%
- inhibition at 50 µM (MCF10A cells; [5]): 70%
- inhibition at 50 µM (MCF10A cells; [6]): 70%

SMILES: O=C(O)CSc1cc(Cl)c2nonc2c1[N+](=O)[O-] [Compound 64]
- Mechanism: ligation step inhibited (1st step) ([2]; Table 5A): 1st step
- inhibition of cell proliferation, in words (HCT116 and MCF10A cells): inhibited cell proliferation
- inhibition at 50 µM (HCT116 cells [1]): 70%
- Growth_Inh % (50 μM) MCF10A (MCF10A cells; 50 μM): 40%
- inhibition at 50 µM (MCF10A cells; [5]): 40%
- inhibition at 50 µM (MCF10A cells; [6]): 40%
- EC50 ([3]; Homo sapiens): ~50 µM

SMILES: Cc1c(Br)cc(NCC(=O)N/N=C\c2cc([N+](=O)[O-])ccc2O)cc1Br [Compound 67]
- IC50 (HCT116 cells [4]; [7]): 8 µM
- IC50 (HCT116 cells [4]; [8]): 8 µM
- inhibition of the first step of the ligation reaction (ligase-AMP formation) [2]: did not inhibit
- inhibition of cell proliferation, in words (HCT116 and MCF10A cells): inhibited cell proliferation
- In vitro growth inhb HCT116 % Inhb at 50 (μM) (HCT116 cells [1]): 70%
- Growth_Inh % (50 μM) HCT116 (HCT116 cells [1]): 70%
- inhibition at 50 µM (HCT116 cells [1]): 70%
- Growth_Inh % (50 μM) MCF10A (MCF10A cells; 50 μM): 70%
- inhibition at 50 µM (MCF10A cells; [5]): 70%
- inhibition at 50 µM (MCF10A cells; [6]): 70%
- EC50 ([3]; Homo sapiens): ~10 µM
- potentiation of the cytotoxic effects of DNA-damaging agents [3]: potentiate the cytotoxic effects of DNA-damaging agents
- cytotoxicity (cell survival) [3]: cytotoxic

SMILES: O=c1[nH]ncc(N/N=C\c2ccc(O)c([N+](=O)[O-])c2)c1Cl [Compound 82]
- inhibition of the first step of the ligation reaction (ligase-AMP formation) [2]: did not inhibit
- inhibition of cell proliferation, in words (HCT116 and MCF10A cells): inhibited cell proliferation
- In vitro growth inhb HCT116 % Inhb at 50 (μM) (HCT116 cells [1]): 40%
- Growth_Inh % (50 μM) HCT116 (HCT116 cells [1]): 40%
- inhibition at 50 µM (HCT116 cells [1]): 40%
- Growth_Inh % (50 μM) MCF10A (MCF10A cells; 50 μM): 70%
- inhibition at 50 µM (MCF10A cells; [5]): 70%
- inhibition at 50 µM (MCF10A cells; [6]): 70%
- EC50 ([3]; Homo sapiens): ~50 µM
- cell survival: remark in words [3]: cytostatic, G1

SMILES: O=C(Cn1cnc([N+](=O)[O-])n1)N/N=C/c1ccc(O)cc1O [Compound 151]
- IC50 (HCT116 cells [4]; [7]): 22 µM
- IC50 (HCT116 cells [4]; [8]): 22 µM
- inhibition of cell proliferation, in words (HCT116 and MCF10A cells): inhibited cell proliferation
- In vitro growth inhb HCT116 % Inhb at 50 (μM) (HCT116 cells [1]): 70%
- inhibition at 50 µM (HCT116 cells [1]): 70%
- inhibition at 50 µM (MCF10A cells; [5]): 70%
- inhibition at 50 µM (MCF10A cells; [6]): 70%
- EC50 ([3]; Homo sapiens): ~10 µM

SMILES: O=C1Nc2ccccc2Oc2cc([N+](=O)[O-])cc([N+](=O)[O-])c21 [Compound 180]
- IC50 (HCT116 cells [4]; HCT-116, read-out: IC50 HCT116 (head without unit)): 3 µM
- IC50 (HCT116 cells [4]; [7]): 12 µM
- Growth_Inh % (50 μM) HCT116 (HCT116 cells [1]): 70%
- Growth_Inh % (50 μM) MCF10A (MCF10A cells; 50 μM): 70%

SMILES: CS(=O)(=O)NNC(=O)C(=O)NNc1ccccc1 [Compound 184]
- inhibition of cell proliferation of HCT116 at 50 μM (MTT) (HCT116 cells [4]; 50 μM, numbers printed under HCT116 in r92-r106: 16, 64, 124, 130, 165, 184 (30%), 195, 197, 198, 212): 184 (30%)
- inhibition of cell proliferation, in words (HCT116 and MCF10A cells): inhibited cell proliferation
- % growth inhibition HCT116 50 uM (HCT116 cells [1]; 50 uM): 40%
- In vitro growth inhb HCT116 % Inhb at 50 (μM) (HCT116 cells [1]): 40%
- % growth inhibition MCF10A 50 uM (MCF10A cells; 50 uM): 70%
- % growth inhibition of MCF10A cells in culture at 50 uM (MCF10A cells; 50 μM): 70%
- EC50 [3]: ~10 µM

SMILES: Nc1nc(S)nc(O)c1/N=C/c1ccccc1 [Compound 189]
- inhibition of the first step of the ligation reaction (ligase-AMP formation) [2]: did not inhibit
- inhibition of cell proliferation, in words (HCT116 and MCF10A cells): inhibited cell proliferation
- In vitro growth inhb HCT116 % Inhb at 50 (μM) (HCT116 cells [1]): 70%
- Growth_Inh % (50 μM) HCT116 (HCT116 cells [1]): 70%
- inhibition at 50 µM (HCT116 cells [1]): 70%
- Growth_Inh % (50 μM) MCF10A (MCF10A cells; 50 μM): 70%
- inhibition at 50 µM (MCF10A cells; [5]): 70%
- inhibition at 50 µM (MCF10A cells; [6]): 70%
- EC50 ([3]; Homo sapiens): ~50 µM
- potentiation of the cytotoxic effects of DNA-damaging agents [3]: potentiate the cytotoxic effects of DNA-damaging agents
- cytotoxicity (cell survival) [3]: cytotoxic

SMILES: COc1ccc(-c2cnc3c(O)nc(O)nc3n2)cc1 [Compound 190]
- inhibition of cell proliferation, in words (HCT116 and MCF10A cells): inhibited cell proliferation
- In vitro growth inhb HCT116 % Inhb at 50 (μM) (HCT116 cells [1]): 40%
- Growth_Inh % (50 μM) HCT116 (HCT116 cells [1]): 40%
- inhibition at 50 µM (HCT116 cells [1]): 40%
- Growth_Inh % (50 μM) MCF10A (MCF10A cells; 50 μM): 70%
- inhibition at 50 µM (MCF10A cells; [5]): 40%
- inhibition at 50 µM (MCF10A cells; [6]): 40%

SMILES: Cc1oc(C(=O)O)cc1CSCc1cc(C(=O)O)c(C)o1 [Compound 197]
- cell survival: remark in words [3]: no activity

SMILES: O=C(c1ccc(O)cc1)c1ccccc1O [Compound 200]
- IC50 (HCT116 cells [4]; [7]): ~10 µM
- IC50 (HCT116 cells [4]; [8]): 10 to 150 µM
- inhibition at 50 µM (HCT116 cells [1]): 70%
- inhibition at 50 µM (MCF10A cells; [6]): 70%
- cell survival: remark in words [3]: metabolite active

SMILES: CCCCC(=O)c1ccc(O)cc1O [Compound 213]
- inhibition of cell proliferation, in words (HCT116 and MCF10A cells): inhibited cell proliferation
- In vitro growth inhb HCT116 % Inhb at 50 (μM) (HCT116 cells [1]): 70%
- inhibition at 50 µM (HCT116 cells [1]): 70%
- inhibition at 50 µM (MCF10A cells; [5]): 70%
- inhibition at 50 µM (MCF10A cells; [6]): 70%
